From publication PMC5218480 (PLoS ONE, 2017)

Test system: MV-4-11 cells
Assay: Gene expression microarray analysis (Affymetrix PrimeView) and GSEA
Type: cell-based, human
Design: RFU PODN (11730768_x_at) / Fold change /veh PODN (11730768_x_at) / RFU LINC00158 (11744669_a_at) / Fold change /veh LINC00158 (11744669_a_at) / RFU DUSP10 (11751237_a_at) / Fold change /veh DUSP10 (11751237_a_at) / RFU ID3 (11757404_x_at) / Fold change /veh ID3 (11757404_x_at) / RFU PLEKHG5 (11737974_s_at) / Fold change /veh PLEKHG5 (11737974_s_at) / RFU LRRC4B (11730491_at) / Fold change /veh LRRC4B (11730491_at) / RFU GIMAP4 (11747438_a_at) / Fold change /veh GIMAP4 (11747438_a_at) / RFU KRT8 (11758183_x_at) / Fold change /veh KRT8 (11758183_x_at) / RFU CNN1 (11734310_a_at) / Fold change /veh CNN1 (11734310_a_at) / RFU VPS37D (11726825_at) / Fold change /veh VPS37D (11726825_at) / RFU C10orf10 (11716522_x_at) / Fold change /veh C10orf10 (11716522_x_at) / RFU KIR2DL2 /// KIR2DL4 /// KIR2DL5A /// KIR2DL5B /// KIR2DS1 /// KIR2DS2 /// KIR2DS3 /// KIR2DS4 /// KIR3DL3 /// KIR3DL3 /// KIR3DS1 (11738374_at) / Fold change /veh KIR2DL2 /// KIR2DL4 /// KIR2DL5A /// KIR2DL5B /// KIR2DS1 /// KIR2DS2 /// KIR2DS3 /// KIR2DS4 /// KIR3DL3 /// KIR3DL3 /// KIR3DS1 (11738374_at) / RFU C1QL1 (11718748_at) / Fold change /veh C1QL1 (11718748_at) / RFU TMPRSS4 (11747572_a_at) / Fold change /veh TMPRSS4 (11747572_a_at) / RFU HAMP (11756126_x_at) / Fold change /veh HAMP (11756126_x_at) / RFU RNFT2 (11725882_a_at) / Fold change /veh RNFT2 (11725882_a_at) / RFU NR4A2 (11747474_a_at) / Fold change /veh NR4A2 (11747474_a_at) / RFU ABCC12 (11746883_a_at) / Fold change /veh ABCC12 (11746883_a_at) / RFU TMEM136 (11760407_x_at) / Fold change /veh TMEM136 (11760407_x_at) / RFU CLDN22 /// WWC2 (11732394_at) / Fold change /veh CLDN22 /// WWC2 (11732394_at) / RFU HLA-DPB1 (11760878_x_at) / Fold change /veh HLA-DPB1 (11760878_x_at) / RFU SPINT1 (11716480_a_at) / Fold change /veh SPINT1 (11716480_a_at) / RFU GAP43 (11754022_s_at) / Fold change /veh GAP43 (11754022_s_at) / RFU A4GNT (11735810_at) / Fold change /veh A4GNT (11735810_at) / RFU PRB3 (11715151_x_at) / Fold change /veh PRB3 (11715151_x_at) / RFU TUBB4B (11761932_at) / Fold change /veh TUBB4B (11761932_at) / RFU CAPN14 (11732068_a_at) / Fold change /veh CAPN14 (11732068_a_at) / RFU TMCC2 (11721928_a_at) / Fold change /veh TMCC2 (11721928_a_at) / RFU IRGQ (11745062_a_at) / Fold change /veh IRGQ (11745062_a_at) / RFU FAM174B (11720279_a_at) / Fold change /veh FAM174B (11720279_a_at) / RFU TMPRSS4 (11748680_a_at) / Fold change /veh TMPRSS4 (11748680_a_at) / RFU FAM212B (11763350_a_at) / Fold change /veh FAM212B (11763350_a_at) / RFU PLEKHG5 (11743358_a_at) / Fold change /veh PLEKHG5 (11743358_a_at) / RFU ZSCAN30 (11745921_a_at) / Fold change /veh ZSCAN30 (11745921_a_at) / RFU CMKLR1 (11741424_a_at) / Fold change /veh CMKLR1 (11741424_a_at) / RFU LOC101060620 /// MAPK8IP1 (11723275_at) / Fold change /veh LOC101060620 /// MAPK8IP1 (11723275_at) / RFU SPTSSB (11747773_x_at) / Fold change /veh SPTSSB (11747773_x_at) / RFU PRSS12 (11739890_at) / Fold change /veh PRSS12 (11739890_at) / RFU BIN1 (11741810_x_at) / Fold change /veh BIN1 (11741810_x_at) / RFU WNT11 (11732464_a_at) / Fold change /veh WNT11 (11732464_a_at) / RFU C10orf10 (11716521_a_at) / Fold change /veh C10orf10 (11716521_a_at) / RFU C5orf56 (11738089_at) / Fold change /veh C5orf56 (11738089_at) / RFU CYB561 (11721691_x_at) / Fold change /veh CYB561 (11721691_x_at) / RFU ANKRD19P (11752326_a_at) / Fold change /veh ANKRD19P (11752326_a_at) / RFU OR2T12 /// OR2T33 /// OR2T8 (11738714_s_at) / Fold change /veh OR2T12 /// OR2T33 /// OR2T8 (11738714_s_at) / RFU VCAN (11748164_a_at) / Fold change /veh VCAN (11748164_a_at) / RFU JSRP1 (11732532_at) / Fold change /veh JSRP1 (11732532_at) / RFU KRTAP10-11 (11738290_x_at) / Fold change /veh KRTAP10-11 (11738290_x_at) / RFU MYO3A (11730013_a_at) / Fold change /veh MYO3A (11730013_a_at) / RFU EBF3 (11725865_a_at) / Fold change /veh EBF3 (11725865_a_at) / RFU CAMK2N1 (11719241_x_at) / Fold change /veh CAMK2N1 (11719241_x_at) / RFU C5orf56 (11738088_a_at) / Fold change /veh C5orf56 (11738088_a_at) / RFU OLFML3 (11715873_a_at) / Fold change /veh OLFML3 (11715873_a_at) / RFU LOC100653217 /// NTM (11731650_a_at) / Fold change /veh LOC100653217 /// NTM (11731650_a_at) / RFU MAPK11 (11762145_a_at) / Fold change /veh MAPK11 (11762145_a_at) / RFU FIZ1 (11724087_x_at) / Fold change /veh FIZ1 (11724087_x_at) / RFU OASL (11726364_x_at) / Fold change /veh OASL (11726364_x_at) / RFU SOX15 (11748057_x_at) / Fold change /veh SOX15 (11748057_x_at) / RFU CD79A (11719716_a_at) / Fold change /veh CD79A (11719716_a_at) / RFU HIST1H1D (11736915_at) / Fold change /veh HIST1H1D (11736915_at) / RFU CASKIN2 (11723855_a_at) / Fold change /veh CASKIN2 (11723855_a_at) / RFU LOC730098 (11760151_x_at) / Fold change /veh LOC730098 (11760151_x_at) / RFU OR4N2 (11742367_at) / Fold change /veh OR4N2 (11742367_at) / RFU PRRT2 (11749266_a_at) / Fold change /veh PRRT2 (11749266_a_at) / RFU SNX32 (11753110_a_at) / Fold change /veh SNX32 (11753110_a_at) / RFU CDHR5 (11726645_a_at) / Fold change /veh CDHR5 (11726645_a_at) / RFU RCAN1 (11760418_a_at) / Fold change /veh RCAN1 (11760418_a_at) / RFU FAM167A (11723789_a_at) / Fold change /veh FAM167A (11723789_a_at) / RFU FAM26E (11764081_at) / Fold change /veh FAM26E (11764081_at) / RFU ISYNA1 (11749810_s_at) / Fold change /veh ISYNA1 (11749810_s_at) / RFU ACY1 (11761880_at) / Fold change /veh ACY1 (11761880_at) / RFU 11764098_at / Fold change /veh 11764098_at / RFU SAMD14 (11745864_x_at) / Fold change /veh SAMD14 (11745864_x_at) / RFU NPB (11741838_a_at) / Fold change /veh NPB (11741838_a_at) / RFU TMPRSS6 (11731388_a_at) / Fold change /veh TMPRSS6 (11731388_a_at) / RFU KRTAP10-2 (11738614_at) / Fold change /veh KRTAP10-2 (11738614_at) / RFU ARHGAP8 /// PRR5-ARHGAP8 (11727945_x_at) / Fold change /veh ARHGAP8 /// PRR5-ARHGAP8 (11727945_x_at) / RFU KRTAP5-7 /// NADSYN1 (11734609_at) / Fold change /veh KRTAP5-7 /// NADSYN1 (11734609_at) / RFU RASL12 (11751679_a_at) / Fold change /veh RASL12 (11751679_a_at) / RFU CDKN2B (11736163_a_at) / Fold change /veh CDKN2B (11736163_a_at) / RFU PRF1 (11729649_at) / Fold change /veh PRF1 (11729649_at) / RFU, ZNF638 /// ZNF638-IT1 / Fold change vs veh, ZNF638 /// ZNF638-IT1 / RFU, PANK3 / Fold change vs veh, PANK3 / RFU, SH3YL1 / Fold change vs veh, SH3YL1 / RFU, ZEB2 / Fold change vs veh, ZEB2 / RFU, NRIP1 / Fold change vs veh, NRIP1 / RFU, PTTG1IP / Fold change vs veh, PTTG1IP / RFU, CAPN2 / Fold change vs veh, CAPN2 / RFU, MED14 / Fold change vs veh, MED14 / RFU, SNORA58 / Fold change vs veh, SNORA58 / RFU, C1orf63 / Fold change vs veh, C1orf63 / RFU, LRRFIP1 / Fold change vs veh, LRRFIP1 / RFU, NDUFAF7 / Fold change vs veh, NDUFAF7 / RFU, SLC12A2 / Fold change vs veh, SLC12A2 / RFU, IBTK / Fold change vs veh, IBTK / RFU, ESF1 / Fold change vs veh, ESF1 / Fold change vs veh, TMEM50B / RFU, TAOK1 / Fold change vs veh, TAOK1 / RFU, ACBD3 / Fold change vs veh, ACBD3 / RFU, TMA16 / Fold change vs veh, TMA16 / RFU, RWDD3 / Fold change vs veh, RWDD3 / RFU, BCAT1 / Fold change vs veh, BCAT1 / RFU, EDEM3 / Fold change vs veh, EDEM3 / RFU, TMEM33 / Fold change vs veh, TMEM33 / RFU, WDR75 / Fold change vs veh, WDR75 / RFU, AHCTF1 / Fold change vs veh, AHCTF1 / RFU, TFRC / Fold change vs veh, TFRC / RFU, ZDHHC17 / Fold change vs veh, ZDHHC17 / RFU, NOM1 / Fold change vs veh, NOM1 / RFU, ARL8B / Fold change vs veh, ARL8B / RFU, ZBTB11 / Fold change vs veh, ZBTB11 / RFU, TAMM41 / Fold change vs veh, TAMM41 / RFU, KIAA1704 /// LOC100996395 / Fold change vs veh, KIAA1704 /// LOC100996395 / RFU, ING1 / Fold change vs veh, ING1 / RFU, TRMT61B / Fold change vs veh, TRMT61B / RFU, FUBP3 / Fold change vs veh, FUBP3 / RFU, TP53 / Fold change vs veh, TP53 / RFU, TNKS2 / Fold change vs veh, TNKS2 / RFU, ZFP14 / Fold change vs veh, ZFP14 / RFU, ACTR2 / Fold change vs veh, ACTR2 / RFU, PPP3R1 / Fold change vs veh, PPP3R1 / RFU, PIK3R1 / Fold change vs veh, PIK3R1 / RFU, HNRNPA1 / Fold change vs veh, HNRNPA1 / RFU, RNF170 / Fold change vs veh, RNF170 / RFU, ZNF28 / Fold change vs veh, ZNF28 / RFU, RNGTT / Fold change vs veh, RNGTT / RFU, OGT / Fold change vs veh, OGT / RFU, BRD1 / Fold change vs veh, BRD1 / RFU, MARS / Fold change vs veh, MARS / RFU, ZNF655 / Fold change vs veh, ZNF655 / RFU, FAHD1 / Fold change vs veh, FAHD1 / RFU, BDP1 / Fold change vs veh, BDP1 / RFU, LRRCC1 / Fold change vs veh, LRRCC1 / RFU, ARID1A / Fold change vs veh, ARID1A / RFU, ZNF146 / Fold change vs veh, ZNF146 / RFU, ZNF330 / Fold change vs veh, ZNF330 / RFU, GPN3 / Fold change vs veh, GPN3 / RFU, C9orf123 / Fold change vs veh, C9orf123 / RFU, N4BP2L2 / Fold change vs veh, N4BP2L2 / RFU, ARFIP1 / Fold change vs veh, ARFIP1 / RFU, FAM179B / Fold change vs veh, FAM179B / RFU, BCL10 / Fold change vs veh, BCL10 / RFU, UHRF1BP1L / Fold change vs veh, UHRF1BP1L / RFU, BET1 / Fold change vs veh, BET1 / RFU, CNOT2 / Fold change vs veh, CNOT2 / RFU, ZNF268 / Fold change vs veh, ZNF268 / Fold change vs veh, ZNF507 / RFU, DGCR2 / Fold change vs veh, DGCR2 / RFU, WDSUB1 / Fold change vs veh, WDSUB1 / Fold change vs veh, HSP90B1 /// MIR3652 / RFU, ADSS / Fold change vs veh, ADSS / RFU, GK / Fold change vs veh, GK / RFU, ZNF148 / Fold change vs veh, ZNF148 / RFU, TAF9 / Fold change vs veh, TAF9 / RFU, SLC1A5 / Fold change vs veh, SLC1A5 / RFU, SLMO2 / Fold change vs veh, SLMO2 / RFU, ABCC4 / Fold change vs veh, ABCC4 / RFU, LOC101060439 /// RAP1B / Fold change vs veh, LOC101060439 /// RAP1B / RFU, RFX7 / Fold change vs veh, RFX7 / RFU, GTPBP10 / Fold change vs veh, GTPBP10 / RFU, CNEP1R1 / Fold change vs veh, CNEP1R1 / RFU, BIVM-ERCC5 /// ERCC5 / Fold change vs veh, BIVM-ERCC5 /// ERCC5 / RFU, ILF3 / Fold change vs veh, ILF3 / RFU 11762660_at / Fold change /veh 11762660_at / RFU VCAN (11757783_s_at) / Fold change /veh VCAN (11757783_s_at) / RFU DDX43 (11728927_at) / Fold change /veh DDX43 (11728927_at) / RFU KRT8 (11758188_x_at) / Fold change /veh KRT8 (11758188_x_at) / RFU NKD1 (11759106_at) / Fold change /veh NKD1 (11759106_at) / RFU SRD5A1 (11742802_a_at) / Fold change /veh SRD5A1 (11742802_a_at) / RFU TPSAB1 /// TPSB2 (11721975_s_at) / Fold change /veh TPSAB1 /// TPSB2 (11721975_s_at) / RFU GSTM3 (11746129_a_at) / Fold change /veh GSTM3 (11746129_a_at) / RFU IL23R (11737362_x_at) / Fold change /veh IL23R (11737362_x_at) / RFU TMEM51 (11727254_a_at) / Fold change /veh TMEM51 (11727254_a_at) / RFU PIWIL2 (11732686_x_at) / Fold change /veh PIWIL2 (11732686_x_at) / RFU ORM1 (11744905_x_at) / Fold change /veh ORM1 (11744905_x_at) / RFU CCDC152 (11743942_at) / Fold change /veh CCDC152 (11743942_at) / RFU ECM1 (11717891_a_at) / Fold change /veh ECM1 (11717891_a_at) / RFU IL23R (11748794_a_at) / Fold change /veh IL23R (11748794_a_at) / RFU TNFAIP8L3 (11732012_x_at) / Fold change /veh TNFAIP8L3 (11732012_x_at) / RFU MBOAT4 (11741988_at) / Fold change /veh MBOAT4 (11741988_at) / RFU 11764193_at / Fold change /veh 11764193_at / RFU TMEM53 (11763286_at) / Fold change /veh TMEM53 (11763286_at) / RFU MAGEB2 (11727129_at) / Fold change /veh MAGEB2 (11727129_at) / RFU TMEM200A (11744735_a_at) / Fold change /veh TMEM200A (11744735_a_at) / RFU CCDC152 (11751479_a_at) / Fold change /veh CCDC152 (11751479_a_at) / RFU FAM211A (11726209_a_at) / Fold change /veh FAM211A (11726209_a_at) / RFU RGS16 (11746705_a_at) / Fold change /veh RGS16 (11746705_a_at) / RFU VCAN (11755009_s_at) / Fold change /veh VCAN (11755009_s_at) / RFU RHOB (11743442_s_at) / Fold change /veh RHOB (11743442_s_at) / RFU RGS16 (11720943_a_at) / Fold change /veh RGS16 (11720943_a_at) / RFU RGS16 (11720944_at) / Fold change /veh RGS16 (11720944_at) / RFU, VPS4B / Fold change vs veh, VPS4B / RFU, CREB1 / Fold change vs veh, CREB1 / RFU, DNAJC13 / Fold change vs veh, DNAJC13 / RFU, GNAQ / Fold change vs veh, GNAQ / RFU, CDK5R1 / Fold change vs veh, CDK5R1 / RFU, ZRANB3 / Fold change vs veh, ZRANB3 / RFU, CUL4A / Fold change vs veh, CUL4A / RFU, CCNY / Fold change vs veh, CCNY / RFU, UFL1 / Fold change vs veh, UFL1 / RFU, COG3 / Fold change vs veh, COG3 / RFU, DIAPH2 / Fold change vs veh, DIAPH2 / RFU, SKA2 / Fold change vs veh, SKA2 / RFU, AFF3 / Fold change vs veh, AFF3 / RFU, LMF1 / Fold change vs veh, LMF1 / RFU, IPO11 / Fold change vs veh, IPO11 / RFU, DFFB / Fold change vs veh, DFFB / RFU, FOXP1 / Fold change vs veh, FOXP1 / RFU, CARD8 / Fold change vs veh, CARD8 / RFU, STRN3 / Fold change vs veh, STRN3 / RFU, ADK / Fold change vs veh, ADK / RFU, RASSF2 / Fold change vs veh, RASSF2 / RFU, WIPF1 / Fold change vs veh, WIPF1 / RFU, LARP1B / Fold change vs veh, LARP1B / RFU, RASA1 / Fold change vs veh, RASA1 / RFU, RB1 / Fold change vs veh, RB1 / RFU, PPFIA1 / Fold change vs veh, PPFIA1 / RFU, MAT2A / Fold change vs veh, MAT2A / RFU, CCT5 / Fold change vs veh, CCT5 / RFU, WDR92 / Fold change vs veh, WDR92 / RFU, CUX1 / Fold change vs veh, CUX1 / RFU, TTC7A / Fold change vs veh, TTC7A / RFU, TMEM135 / Fold change vs veh, TMEM135 / RFU, DEPTOR / Fold change vs veh, DEPTOR / RFU, CPM / Fold change vs veh, CPM / RFU, DNAJB6 / Fold change vs veh, DNAJB6 / RFU, CACNA2D3 / Fold change vs veh, CACNA2D3 / RFU, DTX4 / Fold change vs veh, DTX4 / RFU, TFCP2 / Fold change vs veh, TFCP2 / RFU, GMCL1 /// GMCL1P1 / Fold change vs veh, GMCL1 /// GMCL1P1 / RFU, AEBP2 / Fold change vs veh, AEBP2 / RFU, SNHG1 /// SNORD22 /// SNORD25 /// SNORD26 /// SNORD27 /// SNORD28 /// SNORD29 /// SNORD31 / Fold change vs veh, SNHG1 /// SNORD22 /// SNORD25 /// SNORD26 /// SNORD27 /// SNORD28 /// SNORD29 /// SNORD31 / Fold change (Aza/veh), C12orf56 (ProbeSet 11735607_a_at) / Fold change (ACY-1035/veh), C12orf56 (ProbeSet 11735607_a_at) / Fold change (Aza/veh), FGFR1OP (ProbeSet 11751329_s_at) / Fold change (ACY-1035/veh), FGFR1OP (ProbeSet 11751329_s_at) / Fold change (Aza/veh), VPS36 (ProbeSet 11739960_a_at) / Fold change (ACY-1035/veh), VPS36 (ProbeSet 11739960_a_at) / RFU SYPL1 (11715823_x_at) / Fold change /veh SYPL1 (11715823_x_at) / RFU IGFBP7 (11715501_s_at) / Fold change /veh IGFBP7 (11715501_s_at) / RFU REEP3 (11722064_at) / Fold change /veh REEP3 (11722064_at) / RFU IGLL1 (11728026_x_at) / Fold change /veh IGLL1 (11728026_x_at): dose or concentration left out as unconfirmed
Settings: MV-4-11 cells, 48 hours

Nc1ncn([C@@H]2O[C@H](CO)[C@@H](O)[C@H]2O)c(=O)n1 [azacitidine]
RFU MYO3A (11730013_a_at): 81.22 RFU
